This note sets out measurements from patent US20250243171A1, “QUINAZOLINE COMPOUNDS FOR TREATMENT OF DISEASE” (Arthrosi Therapeutics, Inc., priority 2021, published 2025).

What all share (assay): EC50 assay: Ba/F3 stable cell proliferation (CCK-8, 72 h)
Common to all, as to type: cell-based

Assay [1] deals with T1, Ba/F3 stable cells (Homo sapiens, UniProt P00533, DUP771-773, cells depend on it).
T1 construct: EC50 Ba/F3-EGFR H773-V774insNPH; other: Ba/F3-EGFR H773-V774insNPH cells, 72 h, CCK-8
To be noted: Ba/F3-EGFR H773-V774insNPH cells. Summed up:
(§1)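 Ba/F3 stable cells were seeded at 4,000 cells/90 μL/well in 96-well plates and held 2 h at 37° C. in 5% CO2, then given 10 μL of serially titrated compound (0.1% DMSO final). After 72 h at 37° C., CCK-8 reagent was added for 4 hours and absorbance read at 450 nm to derive EC50.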

Assay [2] has as its target T2, Ba/F3 stable cells (Homo sapiens, UniProt P04626, DUP772-775, cells depend on it).
T2 construct: EC50 Ba/F3-HER2 A775-G776insYVMA; other: Ba/F3-HER2 A775-G776insYVMA cells, 72 h, CCK-8
To be noted: Ba/F3-HER2 A775-G776insYVMA cells. Summed up: as §1

The target of assay [3] is T3, Ba/F3 stable cells (Homo sapiens, UniProt P00533, DUP768-770, cells depend on it).
T3 construct: EC50 Ba/F3-EGFR D770-N771insSVD; other: Ba/F3-EGFR D770-N771insSVD cells, 72 h, CCK-8
Conditions: Ba/F3-EGFR D770-N771insSVD cells. Summed up:
as §1

Assay [4] addresses T4, Ba/F3 stable cells (Homo sapiens, UniProt P00533, T790M/L858R, cells depend on it).
T4 construct: EC50 Ba/F3-EGFR L858R-T790M; other: Ba/F3-EGFR L858R-T790M cells, 72 h, CCK-8
Conditions: Ba/F3-EGFR L858R-T790M cells. Summed up: as §1

For assay [5], the target named is T5, Ba/F3 stable cells (Homo sapiens, UniProt P00533, INS763FQEA, cells depend on it).
T5 construct: EC50 Ba/F3-EGFR A763-Y764insFQEA; other: Ba/F3-EGFR A763-Y764insFQEA cells, 72 h, CCK-8
To be noted: Ba/F3-EGFR A763-Y764insFQEA cells. The procedure, abridged:
as §1

In assay [6] the target is T6, Ba/F3 stable cells (Homo sapiens, UniProt P00533, DUP767-769, cells depend on it).
T6 construct: EC50 Ba/F3-EGFR V769-D770insASV; other: Ba/F3-EGFR V769-D770insASV cells, 72 h, CCK-8
To be noted: Ba/F3-EGFR V769-D770insASV cells. The procedure, abridged: as §1

T5 sequence (P00533 with tags, fused parts or gaps INS763FQEA): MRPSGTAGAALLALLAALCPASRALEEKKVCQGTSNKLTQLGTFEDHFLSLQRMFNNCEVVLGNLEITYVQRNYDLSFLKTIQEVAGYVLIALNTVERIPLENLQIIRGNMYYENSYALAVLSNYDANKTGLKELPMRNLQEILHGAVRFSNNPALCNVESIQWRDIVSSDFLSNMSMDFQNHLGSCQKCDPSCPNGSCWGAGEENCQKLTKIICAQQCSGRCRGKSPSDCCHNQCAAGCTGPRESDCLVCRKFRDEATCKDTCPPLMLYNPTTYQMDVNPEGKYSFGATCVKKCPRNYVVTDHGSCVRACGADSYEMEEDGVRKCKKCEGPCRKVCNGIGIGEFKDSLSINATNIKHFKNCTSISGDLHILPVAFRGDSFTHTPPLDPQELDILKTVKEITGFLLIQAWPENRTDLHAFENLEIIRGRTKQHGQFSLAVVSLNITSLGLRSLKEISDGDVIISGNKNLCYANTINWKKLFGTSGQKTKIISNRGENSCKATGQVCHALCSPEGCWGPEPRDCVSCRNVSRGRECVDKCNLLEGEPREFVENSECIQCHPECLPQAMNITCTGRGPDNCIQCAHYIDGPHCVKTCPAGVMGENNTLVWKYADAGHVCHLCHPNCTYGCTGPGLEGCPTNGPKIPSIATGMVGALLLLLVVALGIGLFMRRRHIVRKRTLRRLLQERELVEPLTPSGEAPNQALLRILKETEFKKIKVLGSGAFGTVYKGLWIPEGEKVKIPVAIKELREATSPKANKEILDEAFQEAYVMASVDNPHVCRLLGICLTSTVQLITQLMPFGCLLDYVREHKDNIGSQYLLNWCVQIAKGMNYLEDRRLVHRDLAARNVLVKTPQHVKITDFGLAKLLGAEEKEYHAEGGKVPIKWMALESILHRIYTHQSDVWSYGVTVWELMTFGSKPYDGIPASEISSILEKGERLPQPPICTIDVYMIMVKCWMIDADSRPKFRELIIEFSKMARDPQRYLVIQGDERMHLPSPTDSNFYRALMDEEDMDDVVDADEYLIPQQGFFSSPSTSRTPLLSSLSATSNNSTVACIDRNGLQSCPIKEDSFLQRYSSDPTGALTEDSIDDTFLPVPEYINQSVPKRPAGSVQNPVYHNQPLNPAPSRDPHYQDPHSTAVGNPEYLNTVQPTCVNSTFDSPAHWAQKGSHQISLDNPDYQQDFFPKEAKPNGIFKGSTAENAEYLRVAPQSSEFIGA
T4 sequence (P00533 whole entry T790M/L858R): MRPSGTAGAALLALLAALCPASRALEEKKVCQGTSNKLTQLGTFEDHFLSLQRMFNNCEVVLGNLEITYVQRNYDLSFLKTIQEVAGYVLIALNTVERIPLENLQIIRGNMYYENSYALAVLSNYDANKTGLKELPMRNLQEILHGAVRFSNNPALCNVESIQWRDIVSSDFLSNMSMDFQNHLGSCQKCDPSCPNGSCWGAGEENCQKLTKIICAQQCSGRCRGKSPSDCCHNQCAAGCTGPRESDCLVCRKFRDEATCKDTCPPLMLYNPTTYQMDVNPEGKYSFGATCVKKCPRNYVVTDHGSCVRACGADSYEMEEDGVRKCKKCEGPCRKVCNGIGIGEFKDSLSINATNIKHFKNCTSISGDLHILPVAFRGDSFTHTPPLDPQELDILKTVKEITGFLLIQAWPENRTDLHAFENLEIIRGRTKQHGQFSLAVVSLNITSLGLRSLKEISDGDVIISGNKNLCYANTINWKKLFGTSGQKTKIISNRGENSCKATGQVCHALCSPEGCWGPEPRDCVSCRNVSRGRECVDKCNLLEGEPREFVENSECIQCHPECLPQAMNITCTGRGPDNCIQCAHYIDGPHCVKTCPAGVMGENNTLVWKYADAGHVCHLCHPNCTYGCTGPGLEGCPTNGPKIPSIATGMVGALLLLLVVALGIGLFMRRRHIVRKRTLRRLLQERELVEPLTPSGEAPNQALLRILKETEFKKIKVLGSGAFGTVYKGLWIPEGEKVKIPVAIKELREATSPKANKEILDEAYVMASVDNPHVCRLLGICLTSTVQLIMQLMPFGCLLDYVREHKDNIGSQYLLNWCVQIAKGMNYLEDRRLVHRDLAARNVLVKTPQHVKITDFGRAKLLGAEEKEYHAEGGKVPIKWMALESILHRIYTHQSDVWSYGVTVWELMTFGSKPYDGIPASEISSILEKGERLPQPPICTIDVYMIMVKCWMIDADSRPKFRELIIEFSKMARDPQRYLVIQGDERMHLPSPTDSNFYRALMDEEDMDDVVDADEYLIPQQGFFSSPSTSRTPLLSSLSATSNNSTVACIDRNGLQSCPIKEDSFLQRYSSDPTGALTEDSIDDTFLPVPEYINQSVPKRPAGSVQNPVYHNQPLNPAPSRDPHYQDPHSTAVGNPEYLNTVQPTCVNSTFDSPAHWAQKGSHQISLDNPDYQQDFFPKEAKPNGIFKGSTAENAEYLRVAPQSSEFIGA
T2 sequence (P04626 with tags, fused parts or gaps DUP772-775): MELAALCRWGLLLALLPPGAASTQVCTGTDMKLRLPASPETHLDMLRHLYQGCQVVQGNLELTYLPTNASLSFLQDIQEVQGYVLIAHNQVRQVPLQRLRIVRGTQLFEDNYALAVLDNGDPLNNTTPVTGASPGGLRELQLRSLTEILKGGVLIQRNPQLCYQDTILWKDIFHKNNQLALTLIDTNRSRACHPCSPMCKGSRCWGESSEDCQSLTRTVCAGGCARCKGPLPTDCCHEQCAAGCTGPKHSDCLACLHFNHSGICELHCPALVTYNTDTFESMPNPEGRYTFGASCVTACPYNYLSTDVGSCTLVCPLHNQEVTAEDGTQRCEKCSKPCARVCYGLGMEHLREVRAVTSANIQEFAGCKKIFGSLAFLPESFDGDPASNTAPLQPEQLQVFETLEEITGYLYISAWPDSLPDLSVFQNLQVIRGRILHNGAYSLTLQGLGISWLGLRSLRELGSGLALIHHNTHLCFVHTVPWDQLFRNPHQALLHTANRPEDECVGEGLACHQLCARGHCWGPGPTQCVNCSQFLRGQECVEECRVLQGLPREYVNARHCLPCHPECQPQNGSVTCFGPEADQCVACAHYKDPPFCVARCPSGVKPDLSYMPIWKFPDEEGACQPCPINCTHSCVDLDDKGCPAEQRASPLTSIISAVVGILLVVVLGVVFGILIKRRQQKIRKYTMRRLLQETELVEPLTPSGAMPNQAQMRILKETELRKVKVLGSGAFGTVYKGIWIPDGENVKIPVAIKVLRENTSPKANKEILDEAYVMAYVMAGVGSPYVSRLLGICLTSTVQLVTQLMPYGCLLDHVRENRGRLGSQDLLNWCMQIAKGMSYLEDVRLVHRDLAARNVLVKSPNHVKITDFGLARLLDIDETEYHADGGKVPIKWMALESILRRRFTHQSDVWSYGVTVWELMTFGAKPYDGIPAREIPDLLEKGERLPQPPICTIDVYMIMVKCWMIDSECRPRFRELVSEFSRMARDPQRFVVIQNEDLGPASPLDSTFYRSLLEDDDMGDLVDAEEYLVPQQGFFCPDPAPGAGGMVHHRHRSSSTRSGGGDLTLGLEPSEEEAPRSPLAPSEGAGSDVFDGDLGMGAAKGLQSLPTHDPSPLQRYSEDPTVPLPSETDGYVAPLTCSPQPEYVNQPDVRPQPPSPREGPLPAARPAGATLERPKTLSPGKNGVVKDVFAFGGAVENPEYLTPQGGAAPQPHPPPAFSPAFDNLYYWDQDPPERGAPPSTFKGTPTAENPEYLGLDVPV
T3 sequence (P00533 with tags, fused parts or gaps DUP768-770): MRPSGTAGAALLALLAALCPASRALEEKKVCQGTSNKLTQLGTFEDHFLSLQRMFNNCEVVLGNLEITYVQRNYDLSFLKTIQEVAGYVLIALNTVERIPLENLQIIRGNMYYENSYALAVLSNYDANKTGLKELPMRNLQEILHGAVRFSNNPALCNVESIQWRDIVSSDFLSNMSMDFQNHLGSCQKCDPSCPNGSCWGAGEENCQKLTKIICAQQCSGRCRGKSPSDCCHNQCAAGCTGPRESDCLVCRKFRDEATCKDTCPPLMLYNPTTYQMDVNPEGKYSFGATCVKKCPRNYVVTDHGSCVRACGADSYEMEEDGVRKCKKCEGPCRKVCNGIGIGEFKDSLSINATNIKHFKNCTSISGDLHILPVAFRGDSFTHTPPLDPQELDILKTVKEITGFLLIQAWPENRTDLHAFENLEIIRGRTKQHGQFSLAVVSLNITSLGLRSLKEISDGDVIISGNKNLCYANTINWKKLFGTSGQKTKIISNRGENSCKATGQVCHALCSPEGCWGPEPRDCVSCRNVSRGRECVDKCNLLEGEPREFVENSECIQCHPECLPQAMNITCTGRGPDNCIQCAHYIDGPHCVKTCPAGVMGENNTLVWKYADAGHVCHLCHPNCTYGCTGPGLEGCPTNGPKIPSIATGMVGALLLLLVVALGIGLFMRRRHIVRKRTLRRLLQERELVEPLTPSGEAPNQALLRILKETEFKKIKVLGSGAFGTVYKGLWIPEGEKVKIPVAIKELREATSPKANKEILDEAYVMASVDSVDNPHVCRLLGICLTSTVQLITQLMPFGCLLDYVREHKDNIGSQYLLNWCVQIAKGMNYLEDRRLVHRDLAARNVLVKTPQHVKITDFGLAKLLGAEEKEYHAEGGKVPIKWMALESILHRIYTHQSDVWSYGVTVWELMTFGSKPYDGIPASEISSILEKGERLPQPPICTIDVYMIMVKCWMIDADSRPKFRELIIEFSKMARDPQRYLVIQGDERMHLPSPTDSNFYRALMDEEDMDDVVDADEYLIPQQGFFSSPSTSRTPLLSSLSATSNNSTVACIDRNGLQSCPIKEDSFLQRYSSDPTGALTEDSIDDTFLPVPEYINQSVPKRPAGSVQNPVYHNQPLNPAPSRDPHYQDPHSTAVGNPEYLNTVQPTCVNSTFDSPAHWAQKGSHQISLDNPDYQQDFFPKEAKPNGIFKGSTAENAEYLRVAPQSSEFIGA

`C=CC(=O)N1CCC(Oc2c(OC)cc3ncnc(Nc4ccc(Cl)c(Cl)c4F)c3c2[N+](=O)[O-])CC1` [Compound 208, 1-(4-((4-((3,4-dichloro-2-fluorophenyl)amino)-7-methoxy-5-nitroquinazolin-6-yl)oxy)piperidin-1-yl)prop-2-en-1-one]: the half-maximal effective concentration (EC50) on Ba/F3 stable cells [1] is more than 1 µM; at Ba/F3 stable cells [2], more than 1 µM; at Ba/F3 stable cells [3] it was more than 1 µM; on Ba/F3 stable cells [4], more than 1 µM; at Ba/F3 stable cells [5], 0.2 to 1 µM; on Ba/F3 stable cells [6], more than 1 µM.
Regarding `C=CC(=O)N1CCC(Oc2c(OC)cc3ncnc4c3c2NC(=O)N4c2ccc(Cl)c(Cl)c2)CC1` [Compound 215, 9-((1-acryloylpiperidin-4-yl)oxy)-3-(3,4-dichlorophenyl)-8-methoxy-1H-pyrimido[4,5,6-de]quinazolin-2(3H)-one], the EC50 on Ba/F3 stable cells [1] was more than 1 µM; at Ba/F3 stable cells [2], more than 1 µM; on Ba/F3 stable cells [3], more than 1 µM; on Ba/F3 stable cells [4] it was more than 1 µM; at Ba/F3 stable cells [5], not above 0.2 µM; at Ba/F3 stable cells [6], more than 1 µM.
As for `C=CC(=O)N1CC(Oc2c(OC)cc3ncnc4c3c2NC(=O)N4c2ccc(Cl)c(Cl)c2F)C1` [Compound 216, 9-((1-acryloylazetidin-3-yl)oxy)-3-(3,4-dichloro-2-fluorophenyl)-8-methoxy-1H-pyrimido[4,5,6-de]quinazolin-2(3H)-one], the EC50 on Ba/F3 stable cells [1] is not above 0.2 µM; on Ba/F3 stable cells [2] it was more than 1 µM; on Ba/F3 stable cells [3] it was not above 0.2 µM; at Ba/F3 stable cells [4], not above 0.2 µM; at Ba/F3 stable cells [5], not above 0.2 µM; at Ba/F3 stable cells [6] it was not above 0.2 µM.
As for `C=CC(=O)N1CCC(Oc2c(OC)cc3ncnc4c3c2C=C(C)N4c2ccc(Cl)c(Cl)c2F)CC1` [Compound 217, 1-(4-((4-(3,4-dichloro-2-fluorophenyl)-8-methoxy-5-methyl-4H-pyrido[2,3,4-de]quinazolin-7-yl)oxy)piperidin-1yl)prop-2-en-1-one], the EC50 is 0.2 to 1 µM on Ba/F3 stable cells [1]; more than 1 µM at Ba/F3 stable cells [2]; 0.2 to 1 µM at Ba/F3 stable cells [3]; 0.2 to 1 µM on Ba/F3 stable cells [4]; not above 0.2 µM at Ba/F3 stable cells [5]; not above 0.2 µM at Ba/F3 stable cells [6].
Take `C=CC(=O)N1CCC(Oc2c(OC)cc3ncnc4c3c2C=CN4c2ccc(Cl)c(Cl)c2F)CC1` [Compound 218, 1-(4-((4-(3,4-dichloro-2-fluorophenyl)-8-methoxy-4H-pyrido[2,3,4-de]quinazolin-7-yl)oxy)piperidin-1-yl)prop-2-en-1-one]: the EC50 at Ba/F3 stable cells [1] is not above 0.2 µM; on Ba/F3 stable cells [2], more than 1 µM; at Ba/F3 stable cells [3] it was 0.2 to 1 µM; on Ba/F3 stable cells [4] it was 0.2 to 1 µM; on Ba/F3 stable cells [5], not above 0.2 µM; at Ba/F3 stable cells [6] it was not above 0.2 µM.
`C=CS(=O)(=O)N1CCC(Oc2c(OC)cc3ncnc4c3c2NC(=O)N4c2ccc(Cl)c(Cl)c2F)CC1` [Compound 225, 3-(3,4-dichloro-2-fluorophenyl)-8-methoxy-9-((1-(vinylsulfonyl)piperidin-4-yl)oxy)-1H-pyrimido[4,5,6-de]quinazolin-2(3H)-one]: the concentration giving a half-maximal response (EC50) at Ba/F3 stable cells [1] was not above 0.2 µM; on Ba/F3 stable cells [2] it was more than 1 µM; on Ba/F3 stable cells [3] it was not above 0.2 µM; at Ba/F3 stable cells [4], not above 0.2 µM; at Ba/F3 stable cells [5], not above 0.2 µM; on Ba/F3 stable cells [6], not above 0.2 µM.
Take `C=CS(=O)(=O)N1CCC(Oc2c(OC)cc3ncnc4c3c2NC(=O)N4c2ccc(Cl)c(Cl)c2)CC1` [Compound 226, 3-(3,4-dichlorophenyl)-8-methoxy-9-((1-(vinylsulfonyl)piperidin-4-yl)oxy)-1H-pyrimido[4,5,6-de]quinazolin-2(3H)-one]: the EC50 was not above 0.2 µM on Ba/F3 stable cells [1]; not above 0.2 µM at Ba/F3 stable cells [2]; 0.2 to 1 µM at Ba/F3 stable cells [3]; not above 0.2 µM at Ba/F3 stable cells [4]; not above 0.2 µM on Ba/F3 stable cells [5]; 0.2 to 1 µM on Ba/F3 stable cells [6].
As for `C#CC(=O)N1CCC(Oc2c(OC)cc3ncnc4c3c2NC(=O)N4c2ccc(Cl)c(Cl)c2)CC1` [Compound 227, 3-(3,4-dichlorophenyl)-8-methoxy-9-((1-propioloylpiperidin-4-yl)oxy)-1H-pyrimido[4,5,6-de]quinazolin-2(3H)-one], the EC50 at Ba/F3 stable cells [1] is not above 0.2 µM; on Ba/F3 stable cells [2], 0.2 to 1 µM; on Ba/F3 stable cells [3], 0.2 to 1 µM; at Ba/F3 stable cells [4] it was not above 0.2 µM; on Ba/F3 stable cells [5], not above 0.2 µM; on Ba/F3 stable cells [6], 0.2 to 1 µM.
On to `C=CC(=O)NC1COc2c(-c3cnc4ccccc4c3)c3c(N)ncnc3n2C1` (stereo not drawn) [Compound 228, N-(4-amino-5-(quinolin-3-yl)-8,9-dihydro-7H-pyrimido[5′,4′:4,5]pyrrolo[2,1-b][1,3]oxazin-8-yl)acrylamide], for which the EC50 is more than 1 µM at Ba/F3 stable cells [1]; more than 1 µM at Ba/F3 stable cells [2]; more than 1 µM on Ba/F3 stable cells [3]; not above 0.2 µM at Ba/F3 stable cells [4]; not above 0.2 µM on Ba/F3 stable cells [5]; 0.2 to 1 µM on Ba/F3 stable cells [6].

Broadly, the EC50 is the concentration that produces a half-maximal response. A higher EC50 goes with a less potent agent.
